Test results from patent US5569742A (The Salk Institute for Biological Studies, priority 1994, dated 1996).
Positions of bridges follow the written chain, without caps; N, C: chain ends. Residues, ends and D or L forms follow the SMILES beside them.

Experiments:
NPY Y1 receptor = target: T1, NPY Y1 receptor (Homo sapiens, UniProt P25929); experiment: Receptor binding assay, displacement of [125I]PYY from SK-N-MC cells
T1 construct: The human SK-N-MC cell line expresses the Y1 receptor subtype; endogenous in cells; host or cells: SK-N-MC human neuroblastoma cells (intact, plated cells)
T1 sequence (P25929 1-384): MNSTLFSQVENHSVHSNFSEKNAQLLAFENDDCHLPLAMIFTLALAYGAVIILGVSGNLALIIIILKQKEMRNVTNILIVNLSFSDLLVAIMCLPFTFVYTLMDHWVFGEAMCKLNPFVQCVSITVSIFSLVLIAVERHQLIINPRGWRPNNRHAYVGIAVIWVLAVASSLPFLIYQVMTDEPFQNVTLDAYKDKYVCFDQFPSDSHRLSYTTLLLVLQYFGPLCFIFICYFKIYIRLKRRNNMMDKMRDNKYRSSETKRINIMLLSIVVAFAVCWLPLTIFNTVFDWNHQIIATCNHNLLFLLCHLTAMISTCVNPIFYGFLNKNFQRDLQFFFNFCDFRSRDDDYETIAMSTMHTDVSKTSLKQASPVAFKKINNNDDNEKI
Experimental: (§1) Receptor binding assays are performed using the human neuroblastoma SK-N-MC cells Y1 receptors) and the SK-N-BE(2) cells (Y2 receptors). Cells are grown to confluence in […], trypsinized, and plated into 24 microwells plates (10^5 cells per well). Media for SK-N-MC cells is MEM Eagles (500 mL) buffer, containing L-glutamine (10 Ml, 200 mM, penicillin/streptomycin (5 Ml.10 000 mg/mL), nonessential amino acids (5 mL, 11 mg/mL), fetal calf serum (50 mL, 10%), and 500 μL of fungiyorl. Media for SK-N-BE(2) cells is DME-F12 (500 mL) buffer, containing L-glutamine (10 mL, 200 mM), penicillin/streptomycin (5 mL, 10 000 mg/mL), fetal calf serum (50 mL, 10%), and 500 μL of fungiyorl. After 1 day for the SK-N-BE(2) and 2 days for the SK-N-MC, the cells are grown to the appropriate density and are used for binding assays
(§2) Peptides to be tested are prealiquoted at 100 μg/Ml in 100 μL of solution in MILLI-Q™ water (Millipore, U.S.A.). Solutions of peptides in different concentrations (seven doses from 10^-6 to 10^-10 M) are prepared in binding buffer (0.30M sucrose, 10 mM HEPES, 0.1% BSA, and pH is adjusted to 7.4 with NaOH).

NPY Y2 receptor = target: T2, NPY Y2 receptor (Homo sapiens, UniProt P49146); experiment: Receptor binding assay, displacement of [125I]PYY from SK-N-BE2 cells
T2 construct: Functional Y2 receptors have been identified on the cell line SK-N-BE2; endogenous in cells; host or cells: SK-N-BE(2) human neuroblastoma cells (intact, plated cells)
T2 sequence (P49146 1-381): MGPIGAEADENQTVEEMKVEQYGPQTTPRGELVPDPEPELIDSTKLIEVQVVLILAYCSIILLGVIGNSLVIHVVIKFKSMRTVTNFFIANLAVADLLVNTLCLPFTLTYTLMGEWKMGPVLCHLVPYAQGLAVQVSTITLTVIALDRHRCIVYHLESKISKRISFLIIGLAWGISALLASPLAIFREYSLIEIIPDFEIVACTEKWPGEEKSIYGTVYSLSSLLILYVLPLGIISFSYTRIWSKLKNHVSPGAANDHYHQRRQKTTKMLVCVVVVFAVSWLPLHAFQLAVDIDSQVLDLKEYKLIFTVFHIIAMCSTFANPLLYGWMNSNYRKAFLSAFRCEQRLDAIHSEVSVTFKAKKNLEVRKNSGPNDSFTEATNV
Experimental: as §1, §2

Ki (NPY Y1 receptor): 32 nM | Ki (NPY Y2 receptor): > 1000 nM
Structure (SMILES): CC[C@H](C)[C@H](NC(=O)[C@H](Cc1ccc(O)cc1)NC(=O)[C@H](Cc1c[nH]cn1)NC(=O)[C@H](CCCNC(=N)N)NC(=O)[C@H](CC(C)C)NC(=O)[C@H](C)NC(=O)[C@H](CO)NC(=O)[C@@H]1CSSC[C@H](NC(=O)[C@H](CC(=O)O)NC(=O)[C@@H]2CCCN2C(=O)[C@H](CCCCN)NC(=O)[C@H](CO)NC(=O)[C@@H]2CCCN2C(=O)[C@@H](N)Cc2ccc(O)cc2)C(=O)N2CCC[C@H]2C(=O)NCC(=O)N1)C(=O)N[C@@H](CC(N)=O)C(=O)N[C@@H](CC(C)C)C(=O)N[C@H](C(=O)N[C@H](C(=O)N[C@@H](CCCNC(=N)N)C(=O)N1CCC[C@H]1C(=O)N[C@@H](CCCNC(=N)N)C(=O)N[C@@H](Cc1ccc(O)cc1)C(N)=O)[C@@H](C)O)[C@@H](C)CC [SEQ ID NO:8] (H-YPSKPDCPGCSALRHYINLITRPRY-NH2; disulfide 7-10)
